In patent US6013628A, “Method for treating conditions of the eye using polypeptides” (Regents of the University of Minnesota, priority 1995, dated 2000):
No end group written: not given here.

Experiments:
[1] = system: rabbit dermal fibroblasts; test: Fibroblast-mediated collagen gel contraction (shrinkage) assay; assay type: cell-based; conditions: for Contraction: 200 ug laminin peptide, no peptide 67%; for Contraction / % Contraction: cells preincubated 1 hr, gel surface area by planimetry at day 7; for Effect on fibroblast-mediated collagen gel contraction: gels cast with and without fibronectin; for % Contraction: 200 ug type IV collagen peptide, no peptide 36%
From the text: As indicated above, proliferative vitreoretinopathy is the result of the proliferation and migration of fibroblasts, retinal pigment epithelial cells, and glial cells, and their organization into vitreous strands and epiretinal membranes. The vitreous strands and epiretinal membranes can contract, resulting in traction retinal detachment. The ability of rabbit dermal fibroblasts to cause contraction was examined in the collagen gel shrinkage model, which serves as an in vitro model of proliferative vitreoretinopathy (see Verdoon et al., Arch. Ophthalmol., 104, 1216-1219 (1986)). The ability of synthetic polypeptides derived from ECM molecules to inhibit contraction in the collagen gel shrinkage model using rabbit fibroblasts was also examined.
Fifty thousand rabbit dermal fibroblasts were suspended in 250 μl of fibroblast assay medium and mixed with 250 μl of Vitrogen and dispensed into the wells of a 48-well plate. The cells were preincubated with the desired polypeptide concentration (25, 50, 100, or 200 ug/ml) for one hour at 37° C. before mixing with the Vitrogen. Gelling occurred within 20 minutes after transfer of the mix of cell suspension and Vitrogen into an incubator at 37° C. with 5% CO2. The gels were overlaid with 250 μl of growth medium. All conditions were tested in duplicate wells. After 24 hours, the gels were detached from the sides of the wells by sweeping with a 27-gauge needle inserted at the interface between the plastic well and the gel (FIGS. 6-8).
Contraction of collagen gels was quantitated by use of planimetry. The gels were observed daily over the seven day period following detachment for evidence of contraction. The plates were photographed at the end of the seven days to record the amount of contraction. The contraction was measured by recording the area of each gel in each well off the photograph using a computer scanner. The area of the gels with polypeptide was compared to the area of the gels without the polypeptide. Planimetry is a two-dimensional measurement. […] The planimetry measurements accordingly underestimate the degree of contraction that actually occurred.
The collagen gels were cast with or without the incorporation of 25 ug/ml of fibronectin. […] These controls using deactivated cells indicate that cell growth and proliferation are required to effect gel shrinkage.

[2] = 3H-heparin; cited from earlier work
[3] = system: rabbit conjunctival fibroblasts; test: Conjunctival fibroblast proliferation, tritiated thymidine assay; assay type: cell-based; conditions: day 4; mitomycin-C at 100 μg/ml (positive control); no drug control 8537 cpm
From the text: The failure of gluacoma treatment by filtration surgery is most often caused by scarring. Scarring requires fibroblast proliferation and fibrosis of the subconjunctive space. Proliferation of rabbit conjunctival fibroblasts was studied using the tritiated thymidine assay, which serves as an in vitro model of fibroblast proliferation in the rabbit eye (see Invest. Ophthalmol. Vis. Sci., 31, 1848-1855 (1990)). The ability of synthetic polypeptides derived from ECM molecules to inhibit conjuntival fibroblast proliferation was examined in this model.
Rabbit conjunctival fibroblasts were plated into 96-well microtiter plates at 1000 cells/well in 200 microliters of standard fibroblast culture media. Standard fibroblast culture media include Eagle's minimal essential medium containing 15% fetal bovine serum, penicillin G 100 IU/ml, streptomycin 100 μg/ml, and amphotericin B 0.25 μg/ml. Hep-II was added to the wells in concentrations ranging from 1 μg/ml to 1000 μg/ml after removing an equal volume of media to maintain 200 microliters/well. The peptide was used in concentrations of 1, 3, 7, 10, 25, 50, 100, 200, 300, 400, 500, 600, 800 and 1000 microgram/ml (experiments 1-14, respectively in FIG. 26). The tissue culture plates were incubated at 37° C. in a humidified atmosphere of 5% carbon dioxide. Two separate sets experiments were conducted. Each set of experiments was done in replicates of four. In the first set of experiments, tritiated thymidine was added 22 hours prior to each harvesting on days 4, 5, and 8. In the second set of experiments, tritiated thymidine was added 22 hours prior to each harvesting on days 4, 5, and 6. Wells with vehicle but no test compound served as negative controls (experiment #15) and cells with mitomycin-C at 100 μg/ml served as positive controls (experiment #16).

[4] = system: dermal fibroblasts; conditions: Verdoorn et al. 1986; cited from earlier work
[5] = system: proliferative vitreoretinopathy rabbit model; conditions: cited from earlier work
[6] = system: dermal fibroblasts; conditions: Verdoorn et al. 1986; cited from earlier work; remark: listed apart in the source
[7] = system: fibroblasts; conditions: cited from earlier work
[8] = system: human scleral fibroblasts; conditions: cited from earlier work
[9] = system: retinal pigmented epithelial cells; conditions: cited from earlier work
[10] = system: proliferative vitreoretinopathy in rabbits; test: Rabbit model of experimental proliferative vitreoretinopathy (intravitreal fibroblast injection); assay type: in vivo
Procedure: The rabbit model for proliferative vitreoretinopathy is described in Thresher et al., Graefe's Arch. Clin. Exp. Ophthalmol., 221, 192-198 (1984). Adult Dutch Belted rabbits of both sexes were used in the study. All animals were treated according to ARVO Animal Use Guidelines. All eyes were examined prior to initiation of a study and only clinically normal animals were used.
The rabbits were anesthetized using an intramuscular injection of a mix of ketamine (30 mg/kg) and xylazine (5 mg/kg). Pupils were dilated with Mydriacyl (Tropicamide) 1% and Neosynephrine 2.5% topical drops. Topical conjunctival anesthesia was provided with Proparacaine […] drops. All procedures were performed in an approved animal surgical facility. […] This site was used for subsequent intraocular injections, preventing iatrogenic retinal tears at the injection site. An intravitreal injection of 0.4 cc millipore-filtered 100% perfluoropropane gas was administered to produce a gas compression vitrectomy. Once the expansile gas bubble had absorbed, 5-10×10^4 dermal rabbit fibroblasts with or without 200 μg of polypeptide (injection volume-0.1 cc) were injected through a 27 gauge needle into the vitreous cavity. Under indirect ophthalmoscopic visualization, the tip of the needle was placed over the optic nerve head and the cells were injected in this location.
The animals were then observed for the development of proliferative vitreoretinopathy. The final stage of retinal detachment was scored from 0 to 7 using the standard grading scale shown below (see Hida et al., Graefe's Arch. Clin. Exp. Ophthalmol., 225, 1763-1769 (1991)).
Retinal photographs were taken with a wide field fundus camera (Canon) to document the final stage of retinal detachment. Animals were sacrificed while under deep anesthesia with an intravenous injection of 1 cc of euthanasia solution. The eyes were then immediately enucleated, fixed in 10% formalin, paraffin embedded, sectioned at 7 microns, and stained with hematoxylin and eosin for histology.
Three weeks following peripheral retinal cryopexy and gas compression vitrectomy, rabbit fibroblasts incubated for 1 hr with 200 ug of laminin polypeptide R37, type IV collagen polypeptide Hep-II, or BSS (balanced saline solution; control) were injected intravitreally. One eye of each rabbit received polypeptide incubated fibroblasts and the other eye received the control cells. Eyes were examined every three days, and the degree of retinal detachment was graded on the standard scale described above.

[11] = system: rabbit eye; test: Intravitreal polypeptide toxicity in rabbit eye (ERG, clinical observations, histology); assay type: in vivo
Procedure: The toxicity of the polypeptides was determined by three techniques:
ERG. Electroretinograms (ERG) were carried out as a functional indicator of toxicity of a polypeptide treatment. Polypeptides were injected at 200 ug and 400 ug (twice the dose that inhibited proliferative vitreoretinopathy), and ERG measurements were performed three times in each eye at various times post-injection (1 hr to 6 weeks).
Clinical observations. Observation by indirect ophthalmoscopy and slit lamp examination were performed to probe for evidence of toxicity.
Histology. Following ERG and clinical observations, the eyes were immediately enucleated, fixed in 10% formalin, paraffin embedded, sectioned at 7 microns, and stained with hematoxylin and eosin.

[12] = system: dermal fibroblasts; conditions: Verdoorn et al. 1986; cited from earlier work; remark: listed apart in the source

For KNLEISRSTFDLLRNSYGVRK [R26], the Contraction [1] is given as 45%, the “Effect on fibroblast-mediated collagen gel contraction” value [1] is given as “Inhibition of gel contraction was also observed” and the Heparin binding [2] is given as “do not bind”.
In the case of “SPPRRARVT [FN-C/H-IV, Ser-Pro-Pro-Arg-Arg-Ala-Arg-Val-Thr]”, the “Effect on fibroblast-mediated collagen gel contraction” value [1] is given as “Inhibition of gel contraction was also observed” and the Heparin binding [2] is given as “known to bind”.
For “TSLRKALLHAPTGSYSDGQ [R35, TSLRKALLHAPTGSYSDGQ]”, the Contraction [1] is listed as 63% and the Heparin binding [2] is listed as “do not bind”.
In the case of YRVRVTPKEKTGPMKE [FN-C/H-III], the Heparin binding [2] is listed as “known to bind”.
For WQPPRARI [FN-C/H-V], the Heparin binding [2] is listed as “known to bind”.
For `CO[C@@]12[C@H](COC(N)=O)C3=C(C(=O)C(C)=C(N)C3=O)N1C[C@@H]1N[C@@H]12` [mitomycin-C, reference compound], the “Gel contraction by pretreated fibroblasts” value ([1]; fibroblasts pretreated with mitomycin C, data not shown) was “did not cause gel contraction” and the Thymidine uptake [3] was 375 cpm.
For `CC(=O)O[C@H]1C(=O)[C@@]2(C)[C@H]([C@H](OC(=O)c3ccccc3)[C@]3(O)C[C@H](OC(=O)[C@H](O)[C@@H](NC(=O)c4ccccc4)c4ccccc4)C(C)=C1C3(C)C)[C@]1(OC(C)=O)CO[C@@H]1C[C@@H]2O` [taxol], the “Inhibition of cell proliferation” value [4] is listed as “most effective” and the “Traction retinal detachment induced by injected chorioretinal fibroblasts” value ([5]; 0.5 μg intravitreal injection) is listed as “reduces traction retinal detachment”.
For `COc1cc2c(c(OC)c1OC)-c1ccc(OC)c(=O)cc1[C@@H](NC(C)=O)CC2` [colchicine], the “Inhibition of gel contraction” value [6] is given as “most effective at inhibiting gel contraction” and the “Inhibition of cell proliferation” value [4] is given as “inhibited cell proliferation”.
In the case of heparin, the “Fibroblast-mediated contraction of type I collagen gels” value [7] is listed as “inhibit”, the “Proliferation of human scleral fibroblasts” value [8] is listed as “inhibits the proliferation” and the “Proliferation of retinal pigmented epithelial cells” value [9] is listed as “inhibits the proliferation”. The Postoperative bleeding ([5]; rabbit, in vivo) was “increased postoperative bleeding was observed” and the “Development of intraocular fibrin membranes” value ([5]; standardized PVR rabbit model) was “prevent the development of intraocular fibrin membranes”.
For “GVKGDKGNPGWPGAP [IV-H1, GVKGDKGNPGWPGAP]”, the “% Contraction” value [1] was 72% and the “Effect on fibroblast-mediated collagen gel contraction” value [1] was “frequently found to promote contraction”.
In the case of `CC1(C)O[C@@H]2C[C@H]3[C@@H]4CCC5=CC(=O)C=C[C@]5(C)[C@@]4(F)[C@@H](O)C[C@]3(C)[C@]2(C(=O)CO)O1` [triamcinolone acetonide], the “Incidence of retinal detachment” value ([5]; eyes injected with triamcinolone acetonide, reduced from 93%) is given as 75%.
For “KATPMLKMRTSFHGCIK [R37, Lys-Ala-Thr-Pro-Met-Leu-Lys-Met-Arg-Thr-Ser-Phe-His-Gly-Cys-Ile-Lys]”, the Contraction [1] was 12%, the “Effect on fibroblast-mediated collagen gel contraction” value [1] was “most potent inhibitory effects on contraction” and the “Retina appearance (stage 0-7 scale), fundus photograph” value ([10]; 200 ug with 100,000 fibroblasts, three weeks after fibroblast injection) was “normal (Stage 0)”. The “# Detached Retinas (%)” value ([10]; Expt II: 200 ug, 50,000 cells, RD staged at day 21, control 40%) was 0%, the “# Detached Retinas” value ([10]; Expt II: 200 ug, 50,000 cells, RD staged at day 21, total 5 eyes, control 2 of 5) was 0 and the “# Detached Retinas (%)” value ([10]; Expt III: 200 ug, 100,000 cells, RD staged at day 7, control 100%) was 14%. For the same compound, the “# Detached Retinas” value ([10]; Expt III: 200 ug, 100,000 cells, RD staged at day 7, total 7 eyes, control 7 of 7) was 1, the “# Detached Retinas (%)” value ([10]; Expt IV: 200 ug, 80,000 cells, RD staged at day 21, control 100%) was 25% and the “# Detached Retinas” value ([10]; Expt IV: 200 ug, 80,000 cells, RD staged at day 21, total 4 eyes, control 3 of 3) was 1. For the same compound, the “Degree of retinal detachment” value ([10]; fibroblasts incubated 1 hr with 200 ug polypeptide, intravitreal) was “inhibited the degree of retinal detachment”, the Retinal histopathology ([11]; following injection of 400 ug) was “normal rabbit retinal histopathology” and the “Toxic effects by clinical observations, histopathology or ERG” value ([11]; intravitreal injection of 200 ug or 400 ug) was “No toxic effects”. For the same compound, the Heparin binding [2] was “bind”.
In the case of KEGYKVRLDLNITLEFRTTSK [R38], the Contraction [1] is given as 74%, the “Effect on fibroblast-mediated collagen gel contraction” value [1] is given as “frequently found to promote contraction” and the Heparin binding [2] is given as “bind”.
In the case of `C=C1[C@@H](C)[C@H]2[C@H](Cc3ccccc3)NC(=O)[C@]23OC(=O)/C=C/[C@H](O)CCC[C@@H](C)C/C=C/[C@H]3[C@@H]1O` [cytochalasin B], the “Inhibition of cell proliferation” value [4] is given as “inhibited cell proliferation” and the “Inhibition of cell migration” value [12] is given as “minimal effect on cell migration”.
In the case of YEKPGSPPREVVPRPRPGV [FN-C/H-I], the Heparin binding [2] is listed as “known to bind”.
For KNNQKSEPLIGRKKT [FN-C/H-IIa], the Heparin binding [2] is given as “known to bind”.
In the case of `COc1cccc2c1C(=O)c1c(O)c3c(c(O)c1C2=O)C[C@@](O)(C(C)=O)C[C@@H]3O[C@H]1C[C@H](N)[C@H](O)[C@H](C)O1` [daunomycin], the “Inhibition of gel contraction” value [6] is given as “not found to inhibit contraction”, the “Inhibition of cell proliferation” value [4] is given as “most effective” and the “Inhibition of cell migration” value [12] is given as “most inhibited”.
In the case of TAGSCLRKFSTM [Hep-I, TAGSCLRKFSTM], the “% Contraction” value [1] is listed as 33% and the Heparin binding [2] is listed as “reported to bind heparin”.
In the case of GEFYFDLRLKGDK [Hep-III, GEFYFDLRLKGDK], the “% Contraction” value [1] is listed as 33% and the Heparin binding [2] is listed as “reported to bind heparin”.
